We go through 1 compound from publication PMC12388523, “Flavonoids and Sesquiterpene Lactones from Lychnophora ericoides (Arnica-Do-Cerrado) and Their In Vitro Effects on Multiple Myeloma and Acute Myeloid Leukemia” (Metabolites, 2025).

Experiment [1] concerns AMO-1 cells. The experiment in a line: Proliferation, [3H]-thymidine uptake, AMO-1. It counts as cell-based. How it is done:
(§1) Acute myeloid leukemia cell line HL-60 and multiple myeloma cell lines AMO-1 and KMS-12-PE were obtained from the German Collection of Microorganisms and Cell Cultures (DSMZ), Braunschweig, Germany, and non-tumorigenic stromal cell line HS-5 was acquired from the American Type Culture Collection (ATCC, Manassas, VA, USA). All cell lines were cultured in RPMI 1640 medium without phenol red (Pan Biotech, Aidenbach, Germany), supplemented with 2 mM glutamine, 100 U/mL penicillin, 100 µg/mL streptomycin (Sigma-Aldrich, St. Louis, MO, USA), and 10% fetal bovine serum (FBS Maximus, Catus Biotech GmbH, Tutzing, Germany) at 37 °C in a humidified atmosphere of 5% CO2/95% air. Cells were fed twice weekly. Logarithmically growing cells were resuspended at 1 × 10^5 cells/mL, plated in triplicate in round-bottom 96-well plates (100 µL per well; Falcon, Becton Dickinson, Franklin Lakes, NJ, USA), and incubated at 37 °C in 5% CO2/95% air for 2 h. Subsequently, the compounds were adjusted in the cell culture medium to reach the final concentrations in a total volume of 150 µL and incubated for an additional 72 h. Cell proliferation was assessed by [^3H]-thymidine uptake. Each well was exposed to 2 µCi [^3H]-thymidine (Hartmann Analytic, Braunschweig, Germany) during the final 12–16 h of incubation. Cells were harvested using a semi-automated device, and [^3H]-thymidine incorporation (expressed in counts per minute, cpm) was measured with a scintillation counter (MicroBeta TriLux, PerkinElmer, Waltham, MA, USA). Metabolic activity was assessed by resazurin staining. Resazurin (Carl Roth, Karlsruhe, Germany) was dissolved in distilled water at a concentration of 0.1 mg/mL, and 15 µL of this solution was added to each well, followed by a 2 h incubation at 37 °C. Relative fluorescence units (RFUs) were measured using a Synergy H1 plate reader equipped with a 560 nm excitation/590 nm emission filter set (BioTek; Agilent, Santa Clara, CA, USA). Proliferation and metabolic activity in the absence of compounds were defined as 100% (control), and the values for compound-treated samples were expressed as percentages relative to the control. Selectivity indices were calculated by dividing the IC50 value of each compound against HS-5 cells through the IC50 values against the investigated cell lines.
(§2) The Wilcoxon Rank Sum Test was used to analyze proliferation and metabolic activity in the absence and presence of varying compound concentrations (NCSS 2007 software, version 07.1.2, Kaysville, UT, USA). A p-value < 0.05 was considered statistically significant. IC50 values were calculated using GraphPad Prism 10.1.2. This software reports 95% confidence intervals instead of standard errors. […] Nonetheless, the figures clearly illustrate the IC50 values due to the narrow concentration range tested.

The test system of the next experiment is HL-60 cells. The experiment in a line: Metabolic activity, resazurin staining, HL-60. It counts as cell-based. How it is done:
as §1, §2
(§3) Proliferation inhibition often leads to cell death. Therefore, the cytotoxic activity of the compounds was further evaluated using a modified 3-(4,5-dimethylthiazol-2-yl)-2,5-diphenyltetrazolium bromide (MTT) assay, the resazurin (Alamar Blue) assay. Metabolically active cells reduce the non-fluorescent dye resazurin to the fluorescent dye resorufin via mitochondrial reductase activity, which correlates with cell viability. In the first step the metabolic activity of the four isolated flavonoids was investigated, showing a dose-dependent reduction, but to a much lower extent than in the proliferation assays (Table A2). In fact, only 7,3′,4′-trimethoxymyricetin (2) inhibited the metabolic activity of all four cell lines by more than 50% at a concentration of 100 µM.

Experiment [2] has as its system AMO-1 cells. Put plainly: Metabolic activity, resazurin staining, AMO-1. It counts as cell-based. The protocol:
as §1, §2, §3

For another experiment, the system named is NF-κB. The arrangement: method as in PMID 25621077. The conditions noted are these: HT-29; cited from earlier work.
The next experiment concerns B16. More on the design: method as in PMID 15577239. The conditions noted are these: cited from earlier work.
For experiment [3], the system named is human colon cancer cell line HT-29. More on the design: method as in PMID 22685350. The conditions noted are these: cited from earlier work.
The test system of a further experiment is EOL-1. The arrangement: method as in PMID 29350920. The conditions noted are these: cited from earlier work.
Another experiment has as its system HT-29 cells. The arrangement: method as in PMID 29350920. The settings on record: cited from earlier work.

Regarding `C=C(C)C(=O)O[C@H]1C[C@@]2(C)OC(=CC2=O)/C(CO)=C\[C@H]2OC(=O)C(=C)[C@H]12` [Compound 5, goyazensolide], the IC50 in the experiment on AMO-1 cells [1] (Homo sapiens, AMO1, 72 h, AMO-1, 72 h, 95% confidence interval in brackets, read-out: IC50 inhibition of proliferation) is 1600 nM; in the experiment with HL-60 cells (Homo sapiens, HL-60, 72 h, resazurin, 95% confidence interval in brackets, read-out: IC50 inhibition of metabolic activity), 1700 nM; in the experiment with AMO-1 cells [2] (Homo sapiens, AMO1, AMO-1, 72 h, resazurin, 95% confidence interval in brackets, read-out: IC50 inhibition of metabolic activity), 2000 nM; in the experiment with B16, 2080 nM; in experiment [3] it was 560 nM; in the experiment on EOL-1, 1100 nM. For the same compound, the IC50 in the experiment on HT-29 cells was 560 nM. For the same compound, in the experiment on AMO-1 cells [1] (IC50 HS-5 / IC50 AMO-1), the “Selectivity index (proliferation)” value came out at 1.2. The “Selectivity index (metabolic activity)” value in the experiment with HL-60 cells (IC50 HS-5 / IC50 HL-60) is 1.5; in the experiment with AMO-1 cells [2] (IC50 HS-5 / IC50 AMO-1) it was 1.3. The “NF-κB inhibition (in words)” value in the experiment with NF-κB is “potent NF-κB inhibitor”.
